This passage reports inhibition results from patent US5622962A, “5α-reductase inhibitors” (priority 1995, dated 1997).

The assay deals with T1, Type II 5α-Reductase from Human Prostate (Homo sapiens, UniProt P31213).
T1 construct: The same procedure as above was used for preparations using tissue from prostate surgery; from tissue; host or cells: human prostate tissue from surgery, homogenate, 100,000×g pellet
T1 sequence (P31213 1-254): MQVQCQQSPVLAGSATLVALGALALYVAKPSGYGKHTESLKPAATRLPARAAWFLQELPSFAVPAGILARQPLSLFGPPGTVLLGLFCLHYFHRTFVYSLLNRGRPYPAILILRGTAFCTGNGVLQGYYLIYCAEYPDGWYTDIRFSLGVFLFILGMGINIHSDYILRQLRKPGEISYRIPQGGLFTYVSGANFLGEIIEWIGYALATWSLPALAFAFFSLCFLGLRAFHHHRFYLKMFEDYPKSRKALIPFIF
The experiment in a line: Human Type II 5α-reductase assay (conversion of [3H]-testosterone to 5α-reduced metabolites). Type of assay: biochemical. The conditions noted are these: pH 5.5, 0.3 μM; sodium acetate pH 5.5, 25°, 30 min; compared to control reaction mixtures; read-out: percent inhibition of Type II AR.
As a reminder, the inhibition is the percentage by which the read-out fell short of the control. Regarding `CN1C(=O)CC[C@]2(C)c3ccc(NC(=O)c4ccc(N)cc4)cc3CC[C@@H]12` [Example 271, (4aR)-(10bR)-4,10b-dimethyl-8-(4-aminobenzoylamino)-1,2,3,4,4a,5,6,10b-octahydrobenzo[f]quinolin-3-one], the inhibition at 0.3 µM was 36%. Turning to `CN(C)c1ccc(-c2ccc3c(c2)CC[C@H]2N(C)C(=O)CC[C@]32C)cc1` [Example 59, (+)-(4aR)-(10bR)-4-methyl-8-(4-dimethylaminophenyl)-10b-methyl-1,2,3,4,4a,5,6,10b-octahydrobenzo[f]quinolin-3-one], the inhibition at 0.3 µM is 31%. To `C[C@]12CCC(=O)N[C@@H]1CCc1cc(Sc3ccccc3)ccc12` [Example 22, (4aR)-(10bR)-8-phenylthio-10b-methyl-1,2,3,4,4a,5,6,10b-octahydrobenzo[f]quinolin-3-one] belongs 19%; to `C[C@]12C=CC(=O)N[C@@H]1CCc1cc(-c3cccc([N+](=O)[O-])c3)ccc12` [Example 141, (+)-(4aR)-(10bR)-8-(3-nitrophenyl)-10b-methyl-3,4,4a,5,6,10b-hexahydrobenzo[f]quinolin-3-one], 19%. As for `C[C@]12CCC(=O)N[C@@H]1CCc1cc(-c3ccc([N+](=O)[O-])cn3)ccc12` [Example 199, (+)-(4aR)-(10bR)-8-(5-nitro-2-pyridinyl)-10b-methyl-1,2,3,4,4a,5,6,10b-octahydrobenzo[f]quinolin-3-one], the inhibition at 0.3 µM was 30%. As for `C[C@]12CCC(=O)N[C@@H]1CCc1cc(-c3cnc4ccccc4c3)ccc12` [Example 45, (+)-(4aR)-(10bR)-8-(3-quinolinyl)-10b-methyl-1,2,3,4,4a,-5,6,10b-octahydrobenzo[f]quinolin-3-one], the figure is 45%; as for `CN1C(=O)CC[C@]2(C)c3ccc(-c4cccc(F)c4)cc3CC[C@@H]12` [Example 44, (+)-(4aR)-(10bR)-4-methyl-8-(3-fluorophenyl)-10b-methyl-1,2,3,4,4a,5,6,10b-octahydrobenzo[f]quinolin-3-one], 27%. To `CN1C(=O)CC[C@]2(C)c3ccc(-c4ccc5cc(O)ccc5c4)cc3CC[C@@H]12` [Example 60, (+)-(4aR)-(10bR)-4-methyl-8-(2-[6-hydroxy]naphthyl)-10b-methyl-1,2,3,4,4a,5,6,10b-octahydrobenzo[f]quinolin-3-one] belongs 42%; to `CN1C(=O)CC[C@]2(C)c3ccc(-c4cccc(N)c4)cc3CC[C@@H]12` [Example 90, (+)-(4aR)-(10bR)-4-methyl-8-(3-aminophenyl)-10b-methyl-1,2,3,4,4a,5,6,10b-octahydrobenzo[f]quinolin-3-one], 22%.

Take `CN1C(=O)CC[C@]2(C)c3ccc(Sc4ccccc4)cc3CC[C@@H]12` [Example 116, (4aR)-(10bR)-4,10b-dimethyl-8-phenylthio-1,2,3,4, -4a,5,6,10b-octahydrobenzo[f]quinolin-3-one]: the inhibition at 0.3 µM was 24%. To `COc1ccc(-c2ccc3c(c2)CC[C@H]2N(C)C(=O)CC[C@]32C)cc1` [Example 47, (+)-(4aR)-(10bR)-4-methyl-8-(4-methoxyphenyl)-10b-methyl-1,2,3,4,4a,5,6,10b-octahydrobenzo[f]quinolin-3-one] belongs 16%. As for `CN1C(=O)CC[C@]2(C)c3ccc(-c4cccc(NC(=O)c5ccccc5)c4)cc3CC[C@@H]12` [Example 273, (+)-(4aR)-(10bR)-4-methyl-8-(3-[benzoylamino]phenyl)-10b-methyl-1,2,3,4,4a,5,6,10b-octahydrobenzo[f]quinolin-3-one], the figure is 27%; as for `CN1C(=O)CC[C@]2(C)c3ccc(/C=C/c4cncc5ccccc45)cc3CC[C@@H]12` [Example 281, (4aR)-(10bR)-4,10b-dimethyl-8-(2-[4-isoquinolinyl]ethenyl)-1,2,3,4,4a,5,6,10b-octahydrobenzo[f]quinolin-3-one], 44%; as for `CN1C(=O)CC[C@]2(C)c3ccc(NC(=O)c4cccc([N+](=O)[O-])c4)cc3CC[C@@H]12` [Example 268, (+)-(4aR)-(10bR)-4,10b-dimethyl-8-(3-nitrobenzoylamino)-1,2,3,4,4a,5,6,10b-octahydrobenzo[f]quinolin-3-one], 18%.

Turning to `COc1cccc(-c2ccc3c(c2)CC[C@H]2N(C)C(=O)CC[C@]32C)c1` [Example 48, (+)-(4aR)-(10bR)-4-methyl-8-(3-methoxyphenyl)-10b-methyl-1,2,3,4,4a,5,6,10b-octahydrobenzo[f]quinolin-3-one], the inhibition at 0.3 µM was 12%. For the compound `CC(C)C(=O)c1ccc(-c2ccc3c(c2)CC[C@H]2N(C)C(=O)CC[C@]32C)cc1` [Example 122, (+)-(4aR)-(10bR)-4-methyl-8-(4-[isopropylcarbonyl]phenyl)-10b-methyl-1,2,3,4,4a,5,6,10b-octahydrobenzo[f]quinolin-3-one], the inhibition at 0.3 µM worked out at 36%.

In the case of `COc1ccc(-c2ccc3c(c2)CC[C@H]2N(C)C(=O)CC[C@]32C)cc1OC` [Example 42, (+)-(4 aR)-(10bR)-4-methyl-8-(3,4-dimethoxyphenyl)-10b-methyl-1,2,3,4,4a,5,6,10b-octahydrobenzo[f]quinolin-3-one], the inhibition at 0.3 µM is 32%. As for `CN1C(=O)CC[C@]2(C)c3ccc(-c4cccc(C=O)c4)cc3CC[C@@H]12` [Example 57, (+)-(4aR)-(10bR)-4-methyl-8-(3-formylphenyl)-10b-methyl-1,2,3,4,4a,5,6,10b-octahydrobenzo[f]quinolin-3-one], the figure is 20%; as for `CN1C(=O)CC[C@]2(C)c3ccc(-c4ccc(C(F)(F)F)cc4)cc3CC[C@@H]12` [Example 79, (+)-(4aR)-(10bR)-4-methyl-8-(4-trifluoromethylphenyl)-10b-methyl-1,2,3,4,4a,5,6,10b-octahydrobenzo[f]quinolin-3-one], 34%; as for `CN1C(=O)CC[C@]2(C)c3ccc(-c4ccc(C#N)cc4)cc3CC[C@@H]12` [Example 121, (+)-(4aR)-(10bR)-4-methyl-8-(4-cyanophenyl)-10b-methyl-1,2,3,4,4a,5,6,10b-octahydrobenzo[f]quinolin-3-one], 41%. As for `Cc1cc(C)cc(-c2ccc3c(c2)CC[C@H]2N(C)C(=O)CC[C@]32C)c1` [Example 83, (+)-(4aR)-(10bR)-4-methyl-8-(3,5-dimethylphenyl)-10b-methyl-1,2,3,4,4a,5,6,10b-octahydrobenzo[f]quinolin-3-one], the figure is 12%; as for `CN1C(=O)CC[C@]2(C)c3ccc(-c4cccc(Cl)c4)cc3CC[C@@H]12` [Example 63, (+)-(4aR)-(10bR)-4-methyl-8-(3-chlorophenyl)-10b-methyl-1,2,3,4,4a,5,6,10b-octahydrobenzo[f]quinolin-3-one], 19%; as for `CN1C(=O)CC[C@]2(C)c3ccc(-c4cccs4)cc3CC[C@@H]12` [Example 278, (4aR)-(10bR)-4,10b-dimethyl-8-(2-thiophenyl)-1,2,3,4,4a,5,6,10b-octahydrobenzo[f]quinolin-3-one], 28%. As for `CN1C(=O)CC[C@]2(C)c3ccc(-c4ccc(OC(F)(F)F)cc4)cc3CC[C@@H]12` [Example 78, (+)-(4aR)-(10bR)-4-methyl-8-(4-trifluoromethoxyphenyl)-10b-methyl-1,2,3,4,4a,5,6,10b-octahydrobenzo[f]quinolin-3-one], the figure is 3%.

Regarding `CN1C(=O)CC[C@]2(C)c3ccc(-c4ccc5c(c4)CCC5O)cc3CC[C@@H]12` (single isomer, unassigned; (+)) [Example 245], the inhibition at 0.3 µM turned out to be 44%. To `C[C@]12C=CC(=O)N[C@@H]1CCc1cc(-c3cccc4ccccc34)ccc12` [Example 140, (+)-(4aR)-(10bR)-8-(1-naphthyl)-10b-methyl-3,4,4a,5,6,10b-hexahydrobenzo[f]quinolin-3-one] belongs 20%; to `CN1C(=O)CC[C@]2(C)c3ccc(-c4ccc(Cl)cc4Cl)cc3CC[C@@H]12` [Example 94, (+)-(4aR)-(10bR)-4-methyl-8-(2,4-dichlorophenyl)-10b-methyl-1,2,3,4,4a,5,6,10b-octahydrobenzo[f]quinolin-3-one], 1%.

Turning to `C[C@]12CCC(=O)N[C@@H]1CCc1cc(C(=O)Nc3ccccc3)ccc12` [Example 291, (+)-(4aR)-(10bR)-8-phenylcarboxamido-10b-methyl-1,2,3,4,4a,5,6,10b-octahydrobenzo[f]quinoline-3-one], the inhibition at 0.3 µM is 19%. To `CN1C(=O)CC[C@]2(C)c3ccc(-c4ccc(F)cc4)cc3CC[C@@H]12` [Example 85, (+)-(4aR)-(10bR)-4-methyl-8-(4-fluorophenyl)-10b-methyl-1,2,3,4,4a,5,6,10b-octahydrobenzo[f]quinolin-3-one] belongs 12%; to `CN1C(=O)CC[C@]2(C)c3ccc(-c4cccnc4)cc3CC[C@@H]12` [Example 54, (+)-(4aR)-(10bR)-4-methyl-8-(3-pyridyl)-10b-methyl-1,2,3,4,4a,5,6,10b-octahydrobenzo[f]quinolin-3-one], 22%; to `CN1C(=O)CC[C@]2(C)c3ccc(/C=C/c4ccc5ccccc5n4)cc3CC[C@@H]12` [Example 283, (4aR)-(10bR)-4,10b-dimethyl-8-(2-[2-quinolinyl]ethenyl)-1,2,3,4,4a,5,6,10b-octahydrobenzo[f]quinolin-3-one], 37%.

As to `C[C@]12CCC(=O)N[C@@H]1CCc1cc(-c3cccc4ccccc34)ccc12` [Example 92, (+)-(4aR)-(10bR)-8-(1-naphthyl)-10b-methyl-1,2,3,4,4a,5,6,10b-octahydrobenzo[f]quinolin-3-one], the inhibition at 0.3 µM came out at 10%.
